Source: publication PMC8179358, “An explicitly designed paratope of amyloid-β prevents neuronal apoptosis in vitro and hippocampal damage in rat brain” (Chemical Science, 2020)
*1 amine or outer side, *2 acyl side, *3 side chain or, on linkers, in order; H or OH if unused. Where a SMILES comes first, the peptide text is derived from it. Bridges are numbered along the chain shown (N, C = ends). Roman numbers before positions name the chains, in order. [ ]: non-standard residue; d: D form. X1 = O=C(CCCCC(=O)[*:2])NCCCOCCOCCOCCCNC(=O)CCC(=O)[*:1]; NMeF = CN[C@@H](Cc1ccccc1)C(=O)O; NMeL = CN[C@@H](CC(C)C)C(=O)O; NMeV = CN[C@H](C(=O)O)C(C)C

Tests used:
[1] = system: hippocampal neurons, Aβ40-infused rats; experiment: Cresyl violet staining of Nissl granules in hippocampal neurons; assay type: in vivo, Sprague-Dawley rats; settings: intra-hippocampal Aβ40, vs control and sham, P < 0.01, n = 6
Procedure: The overproduction of Aβ damages hippocampal neurons and causes cognitive impairments in AD. […] Cresyl violet staining was performed for identification of Nissl granules in neurons to reveal hippocampal neurodegeneration in this experiment. […]
e. Histopathological experiments for sub-chronic toxicity
Histopathological analysis was carried out on the preserved liver and kidney tissues. The SP1 treated rats and control rats were sacrificed by decapitation after 42 days of treatment schedule. Organs were removed and fixed in 10% buffered neutral formalin for 48 h. The fixed organs were embedded in paraffin wax. Sections were cut by using a microtome with 5-micrometer thickness. Slides were stained with Haematoxylin and eosin (H &E staining) for histological examination. Slides were observed under the light microscope (Dewinter Smart, India)for histopathological changes, and images were taken at […]
The lyophilized Aβ40 peptide was dissolved in artificial cerebrospinal fluid (aCSF: 119mM NaCl, 26.2mm NaHCO3, 2.5mM KCl, 1mM NaH2PO4, 1.3mM MgCl2, 10mM glucose; pH 7.4) solution at a concentration of 1mg/ml for stock and incubated at 37°C for 72 h to induce aggregation. The solution finally kept at 4°C before using it. […]
respective concentrations of SP1were prepared from this stock solution. g. […]

Sprague-Dawley rats = experiment: Sub-chronic toxicity, hematological and biochemical parameters; assay type: in vivo; settings: for Basophil / Total Bilirubin / Creatinine / Eosinophil / Monocyte / RBC / WBC / Serum Urea / SGPT / Lymphocyte / SGOT / Neutrophil / Glucose / ALP: iv, 42 days, n = 8; for Basophil: control 0.00±0.00; for Total Bilirubin: control 0.58±0.04; for Creatinine: control 0.73±0.02; for Eosinophil: control 3.12±0.61; for Monocyte: control 3.20±0.99; for RBC: control 4.77±1.54; for WBC: control 6.60±1.20; for Serum Urea: control 26±1.45; for SGPT: control 38.0±1.70; for Lymphocyte: control 38.2±3.25; for SGOT: control 52.0±2.21; for Neutrophil: control 56.6±2.31; for Glucose: control 103.0±1.34; for ALP: control 111.0±3.46
Procedure: The tabulated biochemical profile (novel biomarkers of the liver and kidney) corroborates the safety charms of SP1 for further in vivo studies.
24 male Sprague Dawley rats were randomly divided into three groups: control, SP1A, and SP1B. Each group contains 8 animals and administration of SP1was performed for 42 days through a tail vein by the following schedule: Control: Without any treatment.
Rats were sacrificed after 42 days of injection schedule and blood was collected for hematological and biochemical estimations. For the histopathological study, the liver and kidney were also isolated very carefully and checked for cytoarchitectural changes if any.
The body weights and volumes of SP1 to be administered were recorded for each animal. Prior to injection, the tail of the animal was warmed by using warm water circulating pad placed under the cage for 5-10 minutes to dilate the veins. A 25-gauge needle was inserted into the vein towards the direction of the head. The needle and syringe were kept parallel to the tail. […]
µg/kg and 500 µg/kg) was injected into the tail slowly. The needle was removed very carefully and gentle compression applied until bleeding was stopped. Animals were returned to their home cage.
The biochemical parameters including blood glucose, serum urea, creatinine, total bilirubin, serum glutamic oxaloacetic transaminase (SGOT), serum glutamic pyruvic transaminase (SGPT), and alkaline phosphatase (ALP) were analyzed for sub-chronic toxicity of SP1by using commercially available diagnostic test kits (Crest Biosystems kits, India). Blood parameters like red blood cells, white blood cells, hemoglobin, neutrophil, lymphocyte, eosinophil, monocyte, and basophil were estimated using standard kits by following the manufacturer’s manual.

[2] = SP1 500 µg/kg, *P<0.01 vs control

## Aβ40: commercially available Aβ40 peptide
[1]
  intensity of Nissl granules, Aβ40 alone: significant (P < 0.01) decrease in the intensity of Nissl granules

## CC(C)C[C@H](NC(=O)CNC(=O)CCC(=O)NCCCOCCOCCOCCCNC(=O)CCCCC(=O)NCC(=O)N(C)[C@@H](CC(C)C)C(=O)N[C@H](C(=O)N(C)[C@@H](Cc1ccccc1)C(=O)N[C@@H](Cc1ccccc1)C(=O)N[C@@H](C)C(N)=O)C(C)C)C(=O)N(C)[C@H](C(=O)N[C@@H](Cc1ccccc1)C(=O)N(C)[C@@H](Cc1ccccc1)C(=O)N[C@@H](C)C(N)=O)C(C)C [SP1] (I: GL[NMeV]F[NMeF]A-NH2 / II: G[NMeL]V[NMeF]FA-NH2; linker I:N-II:N via X1)
Sprague-Dawley rats; 100 μg kg−1, 42 days
  hematological and biochemical parameters, summary: did not find any severe changes in the hematological and biochemical parameters
Sprague-Dawley rats; 500 μg kg−1, 42 days
  hematological and biochemical parameters, summary: Almost similar observations in rats treated with SP1 (500 μg kg^−1) were revealed, except for monocyte and SGOT levels
Sprague-Dawley rats; SP1 100 µg/kg
  Basophil: 0.00±0.00%
  Total Bilirubin: 0.54 ± 0.09 mg/dL
  Creatinine: 0.69 ± 0.05 mg/dL
  Eosinophil: 2.62±0.82%
  Monocyte: 3.8±1.08%
  RBC: 5.20±1.23 10^6/mm3
  WBC: 5.80±1.34 10^3/mm3
  Serum Urea: 32.0 ± 1.83 mg/dL
  SGPT: 44.0±1.84 IU/L
  Lymphocyte: 42.3±2.92%
  SGOT: 55.0±2.94 IU/L
  Neutrophil: 58.00±2.54%
  Glucose: 110.0 ± 1.36 mg/dL
  ALP: 120.0±3.68 IU/L
Sprague-Dawley rats; SP1 500 µg/kg
  Basophil: 0.00±0.00%
  Total Bilirubin: 0.72 ± 0.06 mg/dL
  Creatinine: 0.86 ± 0.03 mg/dL
  Eosinophil: 2.72±0.53%
  RBC: 5.51±1.38 10^6/mm3
  WBC: 6.21±1.15 10^3/mm3
  Serum Urea: 29.0 ± 1.66 mg/dL
  SGPT: 40.32±1.63 IU/L
  Lymphocyte: 40.5±3.12%
  Neutrophil: 62.10±2.42%
  Glucose: 105.0 ± 1.28 mg/dL
  ALP: 116.0±2.15 IU/L
Sprague-Dawley rats; [2]
  Monocyte: 5.20±1.24%
  SGOT: 64.2±2.56 IU/L
